From ChEMBL document CHEMBL1152197, “Convergent synthesis and cruzain inhibitory activity of novel 2-(N'-benzylidenehydrazino)-4-trifluoromethyl-pyrimidines” (Bioorg Med Chem, 2008) come the findings set out here.

What is called inhibition is the drop in the measured response relative to a control, in per cent. Low readings indicate a response near the control, high ones a response far below the control. The IC50 is the concentration that gives 50% inhibition. Read a low IC50 as greater potency in that assay.

Assay [1] addresses Cruzipain (Trypanosoma cruzi) (UniProt P25779). Briefly: Inhibition of Trypanosoma cruzi C-terminal truncated cruzain expressed in DH5alpha Escherichia coli at 100 uM by well-microplate spectrophotometry.
Another assay concerns the target Cruzipain (Trypanosoma cruzi, UniProt P25779). Briefly: Inhibition of Trypanosoma cruzi C-terminal truncated cruzain expressed in DH5alpha Escherichia coli by well-microplate spectrophotometry.

Chain of Cruzipain (P25779 whole entry, the tested form may be a part): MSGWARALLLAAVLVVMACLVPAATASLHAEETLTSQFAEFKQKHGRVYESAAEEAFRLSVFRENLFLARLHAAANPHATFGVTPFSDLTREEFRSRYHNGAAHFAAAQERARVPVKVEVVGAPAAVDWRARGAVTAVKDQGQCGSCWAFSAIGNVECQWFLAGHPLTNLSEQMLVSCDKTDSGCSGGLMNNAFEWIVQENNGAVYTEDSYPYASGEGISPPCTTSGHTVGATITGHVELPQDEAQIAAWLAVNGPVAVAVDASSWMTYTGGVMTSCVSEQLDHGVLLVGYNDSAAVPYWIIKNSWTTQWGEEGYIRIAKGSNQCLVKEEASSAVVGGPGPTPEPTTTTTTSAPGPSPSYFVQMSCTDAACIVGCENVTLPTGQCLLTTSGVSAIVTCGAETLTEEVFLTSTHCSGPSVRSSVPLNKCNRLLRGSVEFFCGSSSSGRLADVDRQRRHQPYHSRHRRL
Chain of Cruzipain (Trypanosoma cruzi) (P25779 123-467 limits assumed): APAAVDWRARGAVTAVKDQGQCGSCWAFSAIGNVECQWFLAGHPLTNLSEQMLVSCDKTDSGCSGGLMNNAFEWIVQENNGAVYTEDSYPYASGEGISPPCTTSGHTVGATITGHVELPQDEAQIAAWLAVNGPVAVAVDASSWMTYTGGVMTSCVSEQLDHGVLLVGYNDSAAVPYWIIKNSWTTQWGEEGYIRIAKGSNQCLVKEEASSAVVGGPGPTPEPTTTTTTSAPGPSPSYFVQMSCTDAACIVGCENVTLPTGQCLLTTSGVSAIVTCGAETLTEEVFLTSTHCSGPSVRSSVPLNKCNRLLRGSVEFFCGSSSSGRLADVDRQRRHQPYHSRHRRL

Consider `O=[N+]([O-])c1ccc(/C=N/Nc2nccc(C(F)(F)F)n2)cc1`, for which, in assay [1], the inhibition is 50%. On Cruzipain, this molecule came in with an IC50 of 100 µM.
For `COc1ccccc1/C=N/Nc1nc(C)cc(C(F)(F)F)n1` the same measures were 20% and more than 150 µM.
Consider `Cc1cc(C(F)(F)F)nc(N/N=C/c2ccccc2C)n1`, for which the inhibition in assay [1] was found to be 45%. The IC50 against Cruzipain was more than 100 µM.
For `Cc1cc(C(F)(F)F)nc(N/N=C/c2ccc(Cl)cc2)n1` the same measures were 60% and 100 µM.
On the same counts, the results for `FC(F)(F)c1ccnc(N/N=C/c2ccccc2)n1` are 30% and more than 150 µM.
For `FC(F)(F)c1ccnc(N/N=C/c2ccc(Cl)cc2)n1` the same measures were 80% and 85 µM.
In the case of `Cc1ccc(/C=N/Nc2nccc(C(F)(F)F)n2)cc1`, the inhibition in assay [1] was 40%. Also, the IC50 against Cruzipain was more than 100 µM.
On the same counts, the results for `COc1ccc(/C=N/Nc2nccc(C(F)(F)F)n2)cc1` are 40% and more than 100 µM.
For `Cc1ccccc1/C=N/Nc1nccc(C(F)(F)F)n1` the same measures were 45% and more than 100 µM.
